Experimental data from the CombiSolv-Exp solvation set (Vermeire and Green 2021).

Assay: solvent given as SMILES
[1] = in CCCCCCCC(=O)OCC(COC(=O)CCCCCCC)OC(=O)CCCCCCC

ClCCCCCl
solvation free energy, 298 K (in CC(C)=O): -6.56 kcal/mol
solvation free energy, 298 K (in O): -2.32 kcal/mol

O=[N+]([O-])c1ccccc1O
solvation free energy, 298 K (in CC(C)CC(C)(C)C): -6.5 kcal/mol
solvation free energy, 298 K (in CCCCCC): -6.48 kcal/mol
solvation free energy, 298 K (in CCCCCCC): -6.49 kcal/mol
solvation free energy, 298 K (in CCCCCCCC): -6.49 kcal/mol
solvation free energy, 298 K (in CCCCCCCCCC): -6.47 kcal/mol
solvation free energy, 298 K (in Cc1cccc(C)c1): -7.73 kcal/mol
solvation free energy, 298 K (in O): -4.58 kcal/mol

CCS
solvation free energy, 298 K (in CC(C)CC(C)(C)C): -3.13 kcal/mol
solvation free energy, 298 K (in CO): -3 kcal/mol
solvation free energy, 298 K (in O): -1.07 kcal/mol
solvation free energy, 298 K (in OCCOCCOCCOCCO): -2.7 kcal/mol

COC(=O)c1ccc(Cl)c([N+](=O)[O-])c1
solvation free energy, 298 K (in CN(C)C=O): -11.6 kcal/mol
solvation free energy, 298 K (in O): -6.89 kcal/mol

CC(C)COCC(C)C
solvation free energy, 298 K (in CCCCCCCCCCCCCCCC): -4.72 kcal/mol
solvation free energy, 298 K (in CCCCCCCCO): -4.62 kcal/mol

CCN(CC)CC
solvation free energy, 298 K (in Brc1ccccc1): -4.47 kcal/mol
solvation free energy, 298 K (in C1CCOC1): -4.59 kcal/mol
solvation free energy, 298 K (in C1COCCO1): -4.06 kcal/mol
solvation free energy, 298 K (in CC1COC(=O)O1): -2.89 kcal/mol
solvation free energy, 298 K (in CC#N): -3.66 kcal/mol
solvation free energy, 298 K (in CC(=O)c1ccccc1): -3.93 kcal/mol
solvation free energy, 298 K (in CC(C)(C)O): -4.38 kcal/mol
solvation free energy, 298 K (in CC(C)=O): -4.05 kcal/mol
solvation free energy, 298 K (in CC(C)CCO): -4.88 kcal/mol
solvation free energy, 298 K (in CC(C)O): -4.55 kcal/mol
solvation free energy, 298 K (in CC(Cl)(Cl)Cl): -4.63 kcal/mol
solvation free energy, 298 K (in CCC#N): -4.03 kcal/mol
solvation free energy, 298 K (in CCC(C)=O): -4.16 kcal/mol
solvation free energy, 298 K (in CCC(C)O): -4.82 kcal/mol
solvation free energy, 298 K (in CCCCCC): -4.49 kcal/mol
solvation free energy, 298 K (in CCCCCCC): -4.47 kcal/mol
solvation free energy, 298 K (in CCCCCCCCCCCCCCCC): -3.99 kcal/mol
solvation free energy, 298 K (in CCCCCO): -4.97 kcal/mol
solvation free energy, 298 K (in CCCCCl): -4.57 kcal/mol
solvation free energy, 298 K (in CCCCO): -4.85 kcal/mol
solvation free energy, 298 K (in CCCO): -4.82 kcal/mol
solvation free energy, 298 K (in CCO): -4.87 kcal/mol
solvation free energy, 298 K (in CCOC(=O)c1ccccc1): -4.06 kcal/mol
solvation free energy, 298 K (in CCOC(C)=O): -4.23 kcal/mol
solvation free energy, 298 K (in CCOCC): -4.45 kcal/mol
solvation free energy, 298 K (in CN(C)C=O): -3.57 kcal/mol
solvation free energy, 298 K (in CO): -5.24 kcal/mol
solvation free energy, 298 K (in Cc1ccc(C)cc1): -4.52 kcal/mol
solvation free energy, 298 K (in Cc1ccccc1): -4.66 kcal/mol
solvation free energy, 298 K (in ClC1CCCCC1): -4.29 kcal/mol
solvation free energy, 298 K (in ClC(Cl)(Cl)Cl): -4.82 kcal/mol
solvation free energy, 298 K (in ClC(Cl)C(Cl)Cl): -5.86 kcal/mol
solvation free energy, 298 K (in ClC(Cl)Cl): -5.61 kcal/mol
solvation free energy, 298 K (in ClCCCl): -4.38 kcal/mol
solvation free energy, 298 K (in ClCCl): -4.98 kcal/mol
solvation free energy, 298 K (in Clc1ccccc1): -4.56 kcal/mol
solvation free energy, 298 K (in Ic1ccccc1): -4.33 kcal/mol
solvation free energy, 298 K (in N#Cc1ccccc1): -4.05 kcal/mol
solvation free energy, 298 K (in O): -3.22 kcal/mol
solvation free energy, 298 K (in O=C1CCCCC1): -4.11 kcal/mol
solvation free energy, 298 K (in c1ccccc1): -4.6 kcal/mol

CC(=O)CC(=O)c1cccs1
solvation free energy, 298 K (in O): -6.08 kcal/mol

CC1=CC(=O)CC(C)(C)C1
solvation free energy, 298 K (in O): -5.18 kcal/mol

Cc1cc2ccccc2cc1C
solvation free energy, 298 K (in CCCCCCCCC=CCCCCCCCC(=O)OCC(COC(=O)CCCCCCCC=CCCCCCCCC)OC(=O)CCCCCCCC=CCCCCCCCC): -8.95 kcal/mol
solvation free energy, 298 K (in O): -2.72 kcal/mol

CC=Cc1ccc(O)c(OC)c1
solvation free energy, 298 K (in O): -6.33 kcal/mol

FC(F)F
solvation free energy, 298 K [1]: -0.46 kcal/mol
solvation free energy, 298 K (in CCCCCCCCC): 0.06 kcal/mol
solvation free energy, 298 K (in CCCCCCCCO): -0.21 kcal/mol
solvation free energy, 298 K (in CN1CCCC1=O): -1.35 kcal/mol
solvation free energy, 298 K (in CN(C)C=O): -0.86 kcal/mol
solvation free energy, 298 K (in O): 0.7 kcal/mol

c1ccc2c(c1)CCC2
solvation free energy, 298 K (in O): -1.42 kcal/mol

FC(Cl)Cl
solvation free energy, 298 K (in CN1CCCC1=O): -1.34 kcal/mol
solvation free energy, 298 K (in CN(C)C=O): -1.35 kcal/mol
solvation free energy, 298 K (in O): 1.54 kcal/mol

CCC1CO1 (stereo unspecified)
solvation free energy, 298 K (in CC(C)O): -3.72 kcal/mol
solvation free energy, 298 K (in COC(=O)OC): -4.11 kcal/mol
solvation free energy, 298 K (in COC(C)=O): -4.16 kcal/mol
solvation free energy, 298 K (in ClC(Cl)Cl): -4.9 kcal/mol
solvation free energy, 298 K (in O): -2.93 kcal/mol

CCCCCCC=O
solvation free energy, 298 K (in O): -2.67 kcal/mol

CCCC(=O)CC
solvation free energy, 298 K (in O): -3.07 kcal/mol

Cc1ccc(C=O)o1
solvation free energy, 298 K (in CCCCCCCC): -4.95 kcal/mol
solvation free energy, 298 K (in CCCCCCCCCC): -5.29 kcal/mol
solvation free energy, 298 K (in O): -5.5 kcal/mol

FC(F)=C(F)C(F)(F)F
solvation free energy, 298 K [1]: -0.41 kcal/mol
solvation free energy, 298 K (in CCCCCCCCO): -0.32 kcal/mol
solvation free energy, 298 K (in COCCO): 3.88 kcal/mol
